Data reported in ChEMBL document CHEMBL5543121, “Drug Repurposing of ACT001 to Discover Novel Promising Sulfide Prodrugs with Improved Safety and Potent Activity for Neutrophil-Mediated Antifungal Immunotherapy” (J Med Chem, 2024).
Values belong to the compound of their own block, whether it stands above or below them. Activity calls are given as the source filed them. No cut-off for these calls is given here.

Tests used:
[1] = system: Polymorphonuclear neutrophil; test: Inhibition of fungal curdlan induced PD-L1 protein expression in mouse polymorphonuclear neutrophils at 20 uM incubated for 16 hrs by ELISA; assay type: functional, cell-based
[2] = Cytotoxicity against mouse polymorphonuclear neutrophils assessed as cell viability at 20 uM incubated for 16 hrs; assay type: toxicity, cell-based; details: polymorphonuclear neutrophil
[3] = molecular target: Signal transducer and activator of transcription 3 (Homo sapiens, UniProt P40763); test: Binding affinity to Cys542 residue of human recombinant STAT3 assessed as covalent modification by measuring mass shift by LC-MS/MS analysis
[4] = Inhibition of fungal curdlan induced PD-L1 expression in mouse neutrophils at 40 uM relative to control; assay type: functional, Neutrophil; details: Mus musculus, Neutrophil
[5] = Cytotoxicity against mouse neutrophils assessed as cell viability at 40 uM relative to control; assay type: toxicity, cell-based, Neutrophil; details: mouse neutrophils, read-out: Activity
[6] = Induction of apoptosis in mouse neutrophils assessed as live cells at 20 uM incubated for 16 hrs by Annexin V-FITC/PI staining based flow cytometry analysis (reference value: 48.5%); assay type: toxicity, cell-based, Neutrophil; details: read-out: Activity
[7] = system: Neutrophil; test: Induction of apoptosis in mouse neutrophils assessed as early apoptotic cells at 20 uM incubated for 16 hrs by Annexin V-FITC/PI staining based flow cytometry analysis (reference value: 25.9%); assay type: toxicity, cell-based
[8] = system: Neutrophil; test: Induction of apoptosis in mouse neutrophils assessed as late apoptotic cells at 20 uM incubated for 16 hrs by Annexin V-FITC/PI staining based flow cytometry analysis (reference value: 24.1%); assay type: toxicity, cell-based
[9] = system: Neutrophil; test: Induction of apoptosis in mouse neutrophils assessed as dead cells at 20 uM incubated for 16 hrs by Annexin V-FITC/PI staining based flow cytometry analysis (reference value: 1.58%); assay type: toxicity, cell-based
[10] = Induction of apoptosis in mouse neutrophils assessed as live cells at 40 uM incubated for 16 hrs by Annexin V-FITC/PI staining based flow cytometry analysis (reference value: 48.5%); assay type: toxicity, cell-based, Neutrophil; details: read-out: Activity
[11] = system: Neutrophil; test: Induction of apoptosis in mouse neutrophils assessed as early apoptotic cells at 40 uM incubated for 16 hrs by Annexin V-FITC/PI staining based flow cytometry analysis (reference value: 25.9%); assay type: toxicity, cell-based
[12] = system: Neutrophil; test: Induction of apoptosis in mouse neutrophils assessed as late apoptotic cells at 40 uM incubated for 16 hrs by Annexin V-FITC/PI staining based flow cytometry analysis (reference value: 24.1%); assay type: toxicity, cell-based
[13] = system: Neutrophil; test: Induction of apoptosis in mouse neutrophils assessed as dead cells at 40 uM incubated for 16 hrs by Annexin V-FITC/PI staining based flow cytometry analysis (reference value: 1.58%); assay type: toxicity, cell-based
[14] = Inhibition of fungal curdlan induced PD-L1 expression in mouse neutrophils assessed as reduction in PD-L1 positive Ly6G positive neutrophils incubated for 16 hrs by flow cytometry analysis; assay type: functional, cell-based; details: Neutrophil
[15] = Cytotoxicity against mouse neutrophils assessed as reduction in cell viability incubated for 16 hrs by flow cytometry analysis; assay type: toxicity, cell-based, Neutrophil
[16] = Therapeutic index, ratio of IC50 for cytotoxicity against mouse neutrophils to IC50 for inhibition of fungal curdlan induced PD-L1 expression in mouse neutrophils; assay type: toxicity; details: read-out: Ratio IC50
[17] = Permeability of compound in PBS/EtOH (70:30) buffer incubated for 12 hrs by PAMPA-BBB assay; assay type: ADME; details: read-out: permeability
[18] = Half life in Sprague-Dawley rat; assay type: ADME; details: in vivo
[19] = Oral bioavailability in Sprague-Dawley rat; assay type: ADME, organism-based; details: in vivo
[20] = AUC (0 to infinity) in Sprague-Dawley rat at 20 mg/kg, iv; assay type: ADME, organism-based; details: in vivo
[21] = system: Candida albicans; test: Induction of neutrophil-mediated antifungal immunity against Candida albicans SC5314 infected in mouse assessed as reduction in PD-L1 positive Ly6G positive neutrophils in bone marrow at 100 mg/kg, po administered once a day for 3 days by flow cytometry analysis; assay type: functional, organism-based; details: time 3.0 day
[22] = system: Candida albicans; test: Induction of neutrophil-mediated antifungal immunity against Candida albicans SC5314 infected in mouse assessed as reduction in PD-L1 positive Ly6G positive neutrophils in kidney at 100 mg/kg, po administered once a day for 3 days by flow cytometry analysis; assay type: functional, organism-based; details: time 3.0 day
[23] = system: Candida albicans; test: Induction of neutrophil-mediated antifungal immunity against Candida albicans SC5314 infected in mouse assessed as inhibition of CXCL1 protein expression in bone marrow at 100 mg/kg, po administered once a day for 3 days by ELISA; assay type: functional, organism-based; details: time 3.0 day
[24] = system: Candida albicans; test: Induction of neutrophil-mediated antifungal immunity against Candida albicans SC5314 infected in mouse assessed as inhibition of CXCL2 protein expression in bone marrow at 100 mg/kg, po administered once a day for 3 days by ELISA; assay type: functional, organism-based; details: time 3.0 day
[25] = system: Candida albicans; test: Induction of neutrophil-mediated antifungal immunity against Candida albicans SC5314 infected in mouse assessed as reduction in accumulation of Ly6G positive neutrophils in bone marrow at 100 mg/kg, po administered once a day for 3 days; assay type: functional, organism-based; details: time 3.0 day
[26] = system: Neutrophil; test: Induction of neutrophil-mediated antifungal immunity against Candida albicans SC5314 infected in mouse assessed as increase in neutrophil infiltration in kidney at 100 mg/kg, po administered once a day for 3 days; assay type: functional, organism-based; details: time 3.0 day
[27] = system: Candida albicans; test: Induction of neutrophil-mediated antifungal immunity against Candida albicans SC5314 infected in mouse assessed as reduction in fungal burden in kidneys at 100 mg/kg, po administered once a day for 3 days; assay type: functional, organism-based; details: time 3.0 day
[28] = system: Candida albicans; test: Induction of neutrophil-mediated antifungal immunity against Candida albicans SC5314 infected in mouse assessed as increase in animal survival rate at 100 mg/kg, po administered once a day for 3 days; assay type: functional, organism-based; details: time 3.0 day
[29] = system: Candida albicans; test: Induction of neutrophil-mediated antifungal immunity against Candida albicans SC5314 infected in mouse assessed as reduction in fungal clusters in kidney at 100 mg/kg, po administered once a day for 3 days by PAS staining based analysis; assay type: functional, organism-based; details: time 3.0 day
[30] = system: Candida albicans; test: Antifungal activity against Candida albicans SC5314 assessed as inhibition of fungal growth at 0.25 to 128 ug/ml measured every 3 hrs for 24 hrs by absorbance based analysis; assay type: functional, organism-based; details: dose 0.25-128 µg/ml
[31] = system: Candida albicans; test: Induction of neutrophil-mediated antifungal immunity against Candida albicans SC5314 infected in cyclophosphamide-induced immunosuppressed C57BL/6 mouse at 100 mg/kg, po pretreated with CTX for 3 days followed by fungal infection and further administered with compound once a day for 3 days; assay type: functional, organism-based; details: time 3.0 day
[32] = molecular target: Signal transducer and activator of transcription 3 (Mus musculus) (UniProt P42227); test: Inhibition of biotinylated ACT001 probe binding to STAT3 in mouse bone marrow neutrophils at 100 uM by pulldown based Western blot analysis; assay type: cell-based; details: Neutrophil
Signal transducer and activator of transcription 3 (Mus musculus), sequence (P42227 whole entry): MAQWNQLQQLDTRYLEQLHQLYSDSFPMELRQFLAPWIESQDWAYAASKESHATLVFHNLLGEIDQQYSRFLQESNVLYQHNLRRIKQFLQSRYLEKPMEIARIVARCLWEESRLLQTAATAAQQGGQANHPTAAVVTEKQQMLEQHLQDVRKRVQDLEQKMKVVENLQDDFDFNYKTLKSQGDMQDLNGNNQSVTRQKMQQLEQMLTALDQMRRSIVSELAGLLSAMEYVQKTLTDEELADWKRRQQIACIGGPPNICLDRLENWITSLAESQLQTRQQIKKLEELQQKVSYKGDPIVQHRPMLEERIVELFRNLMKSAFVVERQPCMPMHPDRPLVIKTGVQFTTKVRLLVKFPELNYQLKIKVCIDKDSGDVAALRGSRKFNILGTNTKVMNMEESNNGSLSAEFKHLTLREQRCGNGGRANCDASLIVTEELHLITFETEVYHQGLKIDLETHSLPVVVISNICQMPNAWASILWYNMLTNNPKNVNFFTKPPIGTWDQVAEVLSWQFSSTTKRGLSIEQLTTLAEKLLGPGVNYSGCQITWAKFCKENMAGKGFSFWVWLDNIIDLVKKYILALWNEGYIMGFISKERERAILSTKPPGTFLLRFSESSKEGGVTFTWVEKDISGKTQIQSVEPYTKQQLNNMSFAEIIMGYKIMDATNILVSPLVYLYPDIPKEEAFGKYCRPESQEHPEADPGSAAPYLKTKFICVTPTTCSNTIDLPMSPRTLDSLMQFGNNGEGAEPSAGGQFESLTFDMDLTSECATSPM

Signal transducer and activator of transcription 3, sequence (P40763 whole entry): as the sequence (P42227 whole entry) above, with D760E counted along it

- Activity [3]: 265 Da
SMILES: C=C1C(=O)O[C@H]2[C@H]1CC[C@]1(C)O[C@@]13CC[C@@](C)(O)[C@H]23
- inhibition [1]: Active
- Activity [2]: Non-Toxic

- IC50 [14]: 16.8 µM
- Papp at 12 h [17]: 4.7 ×10⁻⁶ cm/s
- half-life [18]: 67.2 min
- bioavailability [19]: 50.8%
- AUC(0-inf) [20]: 5540 ng·h/mL
- inhibition [32]: Active
SMILES: CC1=C2CC[C@@](C)(O)[C@@H]2[C@H]2OC(=O)[C@@H](CN(C)C)[C@@H]2CC1 [ACT-001]
- inhibition at 40 µM [4]: 72.8%
- viability at 40 µM [5]: 27.6%
- viability at 16 h, 20 µM [6]: 37.1%
- Activity [7]: 35.1%
- Activity [8]: 25.2%
- Activity [9]: 2.62%
- viability at 16 h, 40 µM [10]: 26.6%
- Activity [11]: 39.2%
- Activity [12]: 29.9%
- Activity [13]: 4.28%
- IC50 at 16 h [15]: 29.3 µM
- selectivity ratio [16]: 1.7
- Activity [21]: Active
- Activity [22]: Active
- Activity [23]: Active
- Activity [24]: Active
- Activity [25]: Active
- Activity [26]: Active
- Activity [27]: Active
- Activity [28]: Active
- Activity [29]: Active
- Activity [30]: inactive
- Activity [31]: inactive
